Laboratory results reported in publication PMC8315922, “In Vitro Identification and In Vivo Confirmation of Inhibitors for Sweet Potato Chlorotic Stunt Virus RNA Silencing Suppressor, a Viral RNase III” (Journal of Virology, 2021).
Read-outs that look alike come from different tables or passages of the source.

Assays:
[1] = molecular target: CSR3 (RNase III of SPCSV) (Sweet potato chlorotic stunt virus, UniProt Q8JJW8); test: Kinetic-based FRET dose-response assay (IC50, DSS); type: biochemical; conditions: for DSS Comm 1 / DSS FIMM1 / DSS FIMM 2: drug sensitivity score; for DSS Comm 1: repeat Comm 1; for DSS FIMM1: repeat FIMM 1; for DSS FIMM 2: repeat FIMM 2
Protocol: A dose-response assay with six concentrations (1.25 nM to 50 μM) was carried out in three independent experiments, which included two tests with the 112 selected FIMM compounds (i.e., compounds prepared by the HTB-FIMM) and one test using the newly ordered commercial compounds (99 of the 112 compounds, i.e., compounds prepared by a second supplier). A dose-response curve was generated for each compound based on PI values as a function of the concentration.
The HTS assay was designed based on FRET using a 22-bp siRNA (forward sequence, […]; reverse sequence, […]) with a 2-nucleotide (nt) 3′ overhang labeled with the fluorescent dye 6-carboxyfluorescein (FAM) and a black hole quencher (BHQ1) on the sense strand (Metabion, Munich, Germany). Screening was initially carried out at one concentration (10 μM) in a 20-μl reaction buffer. […] All reaction mixtures contained 50 nM CSR3 and 375 nM labeled siRNA in 384-well black flat-bottom microplates (Corning, NY, USA) and were prepared using a BioTek MultiFlo FX dispenser with single-channel random access dispenser cassettes (BioTek, Winooski, VT, USA). The plates were read with a PHERAstar FS reader (BMG Labtech, Ortenberg, Germany).
For HTS, the activity of CSR3 was calculated by measuring the change in fluorescence as a function of the reaction time using MARS Data Analysis software (BMG Labtech). To evaluate the CSR3 inhibition efficiency of individual compounds, the PI of each compound was calculated using the slope values for the sample, positive control, and negative control according to the following equation: PI = 100 × [1 − (sample − positive)/(negative − positive)]%. IC50 and DSS values were calculated using concentration-specific PI values according to a previous study ([31]). Relative gene expression was calculated using the classical 2^−ΔΔ^CT method ([63]).

CSR3 [2] = molecular target: T1, CSR3 (Sweet potato chlorotic stunt virus, UniProt Q8JJW8); test: Binding affinity assay using MST; conditions: for Comments: MST behaviour of compound (V-shape response, fluorescence quenching, interference, aggregator); for Binding (Yes/No): MST binding call; for Binding (Yes/No) / Response Amplitude: Table S4; for Response Amplitude: MST response amplitude
T1 sequence (Q8JJW8 1-228): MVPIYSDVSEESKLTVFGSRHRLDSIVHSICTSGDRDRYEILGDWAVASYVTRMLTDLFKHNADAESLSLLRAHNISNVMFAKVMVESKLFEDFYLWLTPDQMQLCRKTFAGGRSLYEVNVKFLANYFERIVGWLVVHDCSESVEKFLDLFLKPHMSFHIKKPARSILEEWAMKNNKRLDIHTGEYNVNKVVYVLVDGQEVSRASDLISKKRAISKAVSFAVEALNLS
Protocol: (§1) Binding affinity assays were first carried out with the 99 commercial compounds using the MST method.
The labeled-protein solution containing 500 nM proteins and 40 nM dye was prepared in PBS buffer with 2% dimethyl sulfoxide (DMSO) for the assay. The 12 concentrations for each compound were obtained by 2-fold serial dilutions (0.2 μM to 400 μM). […] Two independent experiments were carried out in premium coated capillaries (NanoTemper, Munich, Germany) using a Monolith NT.Automated instrument (NanoTemper) with the power set at high (80%), the light-emitting diode (LED) power (pico red) set at 5%, and the on-time set at 20 s. The dissociation constant (Kd) was determined using the MO.Affinity Analysis program (NanoTemper).

CSR3 [3] = molecular target: T1, CSR3; test: Binding affinity assay using SPR; conditions: for Kd: unit inferred, read-out: Steady State Affinity
Protocol: as §1
CSR3 was purified as described above and stored in PBS buffer. SPR was performed on a BiacoreT100 instrument (GE Healthcare) using a sensor S CM5 chip (GE Healthcare). CSR3 (10 ng/μl) was immobilized using the standard amine-coupling method according to the manufacturer’s instructions with immobilization buffer (10 mM sodium acetate [pH 4]); the final response unit (RU) value was 11,459. Compounds at a single concentration (100 μM) or consisting of 2-fold serial dilutions (3 μM to 200 μM) were flowed over the sensor surface using PBS buffer with 0.01 M HEPES, 0.05% surfactant P20, and 2% DMSO. […] To eliminate bulk interference by DMSO, a solvent correction consisting of DMSO at concentrations ranging from 1.5% to 2.8% was carried out for every 30 samples. Steady-state affinity (KD) values were determined using BiacoreT100 Evaluation software, v.2.04 (GE Healthcare).

[4] = repeat Comm 1 (commercial compounds), 1.25 nM to 50 μM, unit inferred, numbers match nM, read-out: IC50 Comm 1
[5] = repeat FIMM 1 (FIMM library compounds), 1.25 nM to 50 μM, unit inferred, numbers match nM (cf. Fig 5A), read-out: IC50 FIMM1
[6] = repeat FIMM 2 (FIMM library compounds), 1.25 nM to 50 μM, unit inferred, numbers match nM, read-out: IC50 FIMM 2
[7] = SPR dose-response 3 μM to 200 μM, 25°C, numbers match M (cf. Fig 5A)
[8] = kinetic-based HTS, Fig 5A summary
[9] = read-out: IC50 Comm 1, repeat Comm 1 (commercial compounds), 1.25 nM to 50 μM, unit inferred, numbers match nM
[10] = read-out: IC50 FIMM 2, repeat FIMM 2 (FIMM library compounds), 1.25 nM to 50 μM, unit inferred, numbers match nM

SMILES | DSS Comm 1 [1] | DSS FIMM1 [1] | DSS FIMM 2 [1] | IC50 [1, 4] | IC50 [1, 5] | IC50 [1, 6] | Comments (CSR3 [2]) | Binding (Yes/No) (CSR3 [2]) | Response Amplitude (CSR3 [2]) | Kd (CSR3 [3]; [7]) | DSS [1, 8] | IC50 [1, 8] | IC50 [1, 9] | IC50 [1, 10] | KD (SPR) (CSR3 [3]; steady-state affinity, Fig 5A) | Steady State Affinity (CSR3 [3]; SPR dose-response 3 μM to 200 μM, 25°C, unit not given, numbers match M (cf. Fig 5A))
O=C1c2c(O)ccc(O)c2C(=O)c2c(NCCNCCO)ccc(NCCNCCO)c21 [FIMM000490] | 16.9 | 14.9 | 15.5 | 1200 nM | 1810 nM | 1640 nM | Interference | No | 0 | 137 nM | – | – | – | – | – | –
O=C(O)c1ccc(C2Nc3c(Br)cccc3C3C=CCC32)cc1 (centres unmarked) [FIMM022230] | 5.4 | 13.8 | 14.3 | – | 1860 nM | – | – | No | 68 | – | 13.8 | ~1860 nM | 12000 nM | 1550 nM | millimolar range | –
Cc1ccc(C2Nc3ccc(C(=O)O)cc3C3C=CCC32)cc1 (centres unmarked) [FIMM031755] | 7.7 | 15.9 | 16.2 | – | – | – | – | No | 0 | 3760 nM | 15.9 | ~1270 nM | 7380 nM | 1240 nM | – | –
COc1cc(C=C2C(=O)NC(=S)NC2=O)ccc1OCc1ccccc1[N+](=O)[O-] [FIMM101864] | 6.4 | 11.2 | 8 | 1690 nM | 3850 nM | 7240 nM | Aggregator | No | 0 | – | – | – | – | – | – | non binder
